In patent publication US20100162416A1, “Multi-stage stem cell carcinogenesis” (StemLifeLine, Inc., priority 2008, published 2010):
“Also recorded” adds a separate entry of the source.

Tests used:
Type in all cases: cell-based, human
[1] = tested on: selected clones (05, 07, 11) and parental hESC; assay: Drug resistance profile: proliferation rate by BrdU incorporation in the presence of chemotherapeutic reagents
Experimental: Drug resistance profiles of selected clones were determined for the common classes of chemotherapeutic reagents. Proliferation rate of the clones and parental hESC was measured in the presence of multiple concentrations of 10 different drugs using BrdU incorporation assay. Each drug has been tested in at least three independent experiments, each condition being done in triplicate. The approximate half maximal inhibitory concentration (IC50) was determined for each of the drugs tested. IC50 represents the concentration of a drug that is required for 50% inhibition in vitro.
Response of the selected clones to the following chemotherapeutic reagents was examined. The chemotherapeutic agents were chosen for their wide-spread use and variety with respect to their modes of action: 5-fluorouracil (5-FU), doxorubicin (Doxo), irinotecan (SN-38), taxol, etoposide (VP-16), carmustine (BCNU), methotrexate (MTX), cytarabine (AraC), temozolomide (MTIC) and chlorambucil (CLB). […] Proliferation rate was measured by BrdU incorporation at the end of the drug treatment. All samples were made in triplicates in each of the three independent experiments performed.

[2] = tested on: clones 07-B1 and 11-B19; assay: Drug resistance of BCNU-selected high-resistance clones; conditions: clones selected by increasing concentrations of BCNU; data not shown
Experimental: Two clones, 07 and 11 were exposed to increasing concentrations of BCNU. The surviving cells were cloned and a number of high-resistance clones two of which, 07-B1 and 11-B19 were isolated. Their drug resistance to BCNU and MTIC was tested.

[3] = tested on: isogenic cloned cell lines derived from one hESC line; assay: Resistance of the panel of isogenic cloned cell lines to common chemotherapeutic agents; conditions: panel of isogenic cloned cell lines with CSC phenotype
Text: Using one hESC line, a panel of isogenic cloned cell lines has already been generated and banked. […] High resolution karyotype (G-banding), proliferation rate (BrdU incorporation and doubling time), growth factor dependence and expression of CSC/SC markers such as Oct-4, Nanog, CD133, ABCG2, ABCG5 etc) have been examined and the stability of the expressed phenotypes was confirmed.

[4] = tested on: clones 05, 07, 11, isogenic hESC control and isogenic cancer lines TMEC02, TMEC03; assay: Salinomycin dose response measured by BrdU incorporation; conditions: clones 05 and 07 compared with clone 11, isogenic hESC control

O=c1[nH]cc(F)c(=O)[nH]1 [5-FU, 5-fluorouracil]
resistance of clone 07 ([1]; clone 07 compared with clone MEC-11): more resistant

O=NN(CCCl)C(=O)NCCCl [BCNU, carmustine]
resistance of clones 07-B1 and 11-B19 relative to parental clones [2]: higher resistance than the parental clones
resistance of transformed cell lines to the agent [3]: increased resistance

COc1cccc2c1C(=O)c1c(O)c3c(c(O)c1C2=O)C[C@@](O)(C(=O)CO)C[C@@H]3O[C@H]1C[C@H](N)[C@H](O)[C@H](C)O1 [doxorubicin]
resistance of transformed cell lines to the agent [3]: increased resistance

CO[C@@]12[C@H](COC(N)=O)C3=C(C(=O)C(C)=C(N)C3=O)N1C[C@@H]1N[C@@H]12 [mitomycin C]
effect on proliferation (positive control) ([1]; all cell lines, BrdU incorporation at end of drug treatment): induced growth arrest in all cell lines

CC(=O)O[C@H]1C(=O)[C@@]2(C)[C@H]([C@H](OC(=O)c3ccccc3)[C@]3(O)C[C@H](OC(=O)[C@H](O)[C@@H](NC(=O)c4ccccc4)c4ccccc4)C(C)=C1C3(C)C)[C@]1(OC(C)=O)CO[C@@H]1C[C@@H]2O [paclitaxel]
resistance of transformed cell lines to the agent [3]: increased resistance

CC[C@@H](C(=O)[C@@H](C)[C@@H](O)[C@H](C)[C@@H]1O[C@@H]([C@@H](CC)C(=O)O)CC[C@@H]1C)[C@H]1O[C@]2(C=C[C@@H](O)[C@]3(CC[C@@](C)([C@H]4CC[C@](O)(CC)[C@H](C)O4)O3)O2)[C@H](C)C[C@@H]1C [salinomycin]
effect of drug on proliferation of clones 05 and 07 [4]: most significantly affected; also recorded: significantly more affected
